≈ marks a conversion by molar mass, not a printed value.
How the values were obtained:
E. cloacae [1] = experiment: QolorAST minimum inhibitory concentration (MIC) test; assay type: cell-based, Enterobacter cloacae
Protocol: (§1) Acinetobacter baumannii, Enterococcus faecalis, Enterococcus faecium, Streptococcus agalactiae, Enterobacter cloacae, Klebsiella pneumoniae, Streptococcus pneumoniae, E coli MG1655, and E coli Trimethoprim resistant were streaked on LB miller agar overnight at 37° C. and resuspended in water aliquot. Next, the bacterial concentration was determined using optical density technique. Subsequently, aliquots of different concentrations were prepared for the antibiotic susceptibility testing experiments in CamHB growth media.
(§2) 5×10^5 CFU ml^−1 Oxacillin-resistant S. aureus aliquots were prepared using resazurin/oxacillin solution using different concentrations of oxacillin antibiotic (16 μg/mL, 32 μg/mL, and 64 μg/mL). 5×10^5 CFU ml^−1 Cipro.
(§3) A minimum inhibitory concentration (MIC) was performed to study the QolorAST broad applicability in detecting bacterial resistance profiles and ensuring timely and efficient antimicrobial theraby. […] The antibiotics cover major bacterial inhibition mechanisms as inhibition of protein synthesis, cell wall synthesis, and/or DNA synthesis.
(§4) QolorAST exploited two methodologies: Manual MIC (MA-MIC) and support vector machine MIC (SVM-MIC). […] The SVM-MIC was carried out with a rbf kernel that was optimized and trained to predict the color change of the preclinical images using our library of bacteria images collected under different conditions including images where color is changed, color transitioning, and no color change. The SVM successfully classified the condition's bacteria-antibiotic in the concentration range studied.

K. pneumonia [2] = experiment: as above; assay type: cell-based, Klebsiella pneumoniae
Protocol: as §1, §2, §3, §4

S. pneumonia [3] = experiment: Conventional broth microdilution (BMD) MIC; assay type: cell-based, Streptococcus pneumoniae
Protocol: (§5) For clinical MIC, bacteria were streaked on LB agar overnight and resuspended in a water aliquot. The aliquot was measured, and the bacteria concentration was adjusted to of 10^6 CFU ml^−1 in LB media. A 96 well plate with an antibiotic gradient from 128 μg/ml to 0.125 μg/ml in a 2-fold concentration dilution step was prepared with a positive control with no antibiotics. Next, the bacteria were introduced to each well of the 96 well plate for a final bacteria concentration of 5×10^5 CFU ml^−1. The well plates were cultured overnight the minimum inhibitory concentration was determined as the antibiotic concentration that didn't show any signs of bacterial growth.

K. pneumonia [4] = experiment: Conventional broth microdilution (BMD) MIC; assay type: cell-based, Klebsiella pneumoniae
Protocol: as §5

E. cloacae [5] = experiment: Conventional broth microdilution (BMD) MIC; assay type: cell-based, Enterobacter cloacae
Protocol: as §5

E coli = experiment: Phenotypic QolorAST rapid AST (resazurin reduction); assay type: cell-based, Escherichia coli; conditions: 10^5 cfu/mL E coli, antibiotic concentrations, 0-60 min
Protocol: (§6) Resistant E. coli, Oxacillin-resistant S. aureus, and Cipro. Resistant PA respectively was used. The aliquots were incubated at 37° C. different periods starting from 0 minutes incubation till 60 minutes with a time step of 5 minutes.
(§7) Resistant PA respectively was used. The aliquots were incubated at 37° C. different periods starting from 0 minutes incubation until 60 minutes with a time step of 5 minutes.
(§8) MRSA and PA respectively.

S. pneumonia [6] = experiment: QolorAST minimum inhibitory concentration (MIC) test; assay type: cell-based, Streptococcus pneumoniae
Protocol: as §1, §2, §3, §4

A. baumannii [7] = experiment: as above; assay type: cell-based, Acinetobacter baumannii
Protocol: as §1, §2, §3, §4

A. baumannii [8] = experiment: Conventional broth microdilution (BMD) MIC; assay type: cell-based, Acinetobacter baumannii
Protocol: as §5

E coli mm 294 = experiment: QolorAST MIC test for E coli strains spiked in urine; assay type: cell-based, Escherichia coli; conditions: E coli mm 294 spiked in urine
Protocol: To obtain spiked human samples, first human urine was centrifuged at 5000 rcf for 5 minutes to remove large particles. It was subsequently spiked with 5×10^5 CFU ml^−1 and mixed with a solution of Resazurin to a final concentration of 0.02%. No antibiotics were added for the control aliquots, 32 μg/mL Ampicillin was added for resistant aliquots and 16 μg/mL Kanamycin was added for susceptible aliquots. The aliquots were incubated at 37° C. different periods starting from 0 minutes incubation till 60 minutes with a time step of 5 minutes.
According to the Infectious Diseases Society of America (IDSA), 105 CFU ml^−1 and 102 CFU ml^−1 were spiked in-vivo in urine, serum, and nasal swab of donors to simulate urinary tract infection, wound infection, and pneumonia by MRSA, respectively. Human urine was spiked with different concentrations of E. coli (FIG. 32D). As a control the healthy human biofluids were screened as received.

MRSA [9] = experiment: Conventional broth microdilution (BMD) MIC; assay type: cell-based, Staphylococcus aureus
Protocol: as §5

S. agalactiae [10] = experiment: QolorAST minimum inhibitory concentration (MIC) test; assay type: cell-based, Streptococcus agalactiae
Protocol: as §1, §2, §3, §4

serum proteins = conditions: human serum; cited from earlier work
S. agalactiae [11] = experiment: Conventional broth microdilution (BMD) MIC; assay type: cell-based, Streptococcus agalactiae
Protocol: as §5

MRSA [12] = experiment: Phenotypic QolorAST rapid AST (resazurin reduction); assay type: cell-based, Staphylococcus aureus; conditions: 10^5 cfu/mL MRSA, antibiotic concentrations, 0-60 min
Protocol: as §6, §7, §8

MRSA [13] = experiment: QolorAST minimum inhibitory concentration (MIC) test; assay type: cell-based, Staphylococcus aureus
Protocol: (§9) Ampicillin-resistant E. coli strain mm294 was cultured overnight at 37° C. in Luria broth (LB) media supplemented with 100 μg/mL Ampicillin. […] Next, the bacterial concentration was determined by optical density technique using a Spectronic 21D spectrophotometer. Subsequently, aliquots of different concentrations were prepared for the antibiotic susceptibility testing experiments in LB media. Biotyper spectra (MALDI Bruker).
as §2, §3, §4

Pseudomonas aeruginosa = experiment: Phenotypic QolorAST rapid AST (resazurin reduction); assay type: cell-based; conditions: 10^5 cfu/mL PA, antibiotic concentrations, 0-60 min
Protocol: as §6, §7, §8

PA [14] = experiment: Conventional broth microdilution (BMD) MIC; assay type: cell-based, Pseudomonas aeruginosa
Protocol: as §5

PA [15] = experiment: QolorAST minimum inhibitory concentration (MIC) test; assay type: cell-based, Pseudomonas aeruginosa
Protocol: as §9, §2, §3, §4

CC1(C)S[C@@H]2[C@H](NC(=O)[C@H](N)c3ccccc3)C(=O)N2[C@H]1C(=O)O [Ampicillin]
MA-MIC/SVM-MIC/MIC Category (E. cloacae [1]): R/R/R
QolorAST MIC Manual (MA-MIC) (E. cloacae [1]): > 128 µg/mL
QolorAST MIC SVM (SVM-MIC) (E. cloacae [1]): > 128 µg/mL
MA-MIC/SVM-MIC/MIC Category (K. pneumonia [2]): R/R/R
QolorAST MIC Manual (MA-MIC) (K. pneumonia [2]): > 128 µg/mL
QolorAST MIC SVM (SVM-MIC) (K. pneumonia [2]): 128 µg/mL
relative susceptibility from MIC values (K. pneumonia [2]): enhanced susceptibility to ampicillin over colistin
Broth Microdilution MIC (MIC) (S. pneumonia [3]): >128
Broth Microdilution MIC (MIC) (K. pneumonia [4]): >128
Broth Microdilution MIC (MIC) (E. cloacae [5]): >128
QolorAST colour readout over incubation (E coli): consistent color change from blue to green
MA-MIC/SVM-MIC/MIC Category (S. pneumonia [6]): R/R/R*
QolorAST MIC Manual (MA-MIC) (S. pneumonia [6]): > 128 µg/mL
QolorAST MIC SVM (SVM-MIC) (S. pneumonia [6]): > 128 µg/mL
MA-MIC/SVM-MIC/MIC Category (A. baumannii [7]): R/R/R*
QolorAST MIC Manual (MA-MIC) (A. baumannii [7]): > 128 µg/mL
QolorAST MIC SVM (SVM-MIC) (A. baumannii [7]): > 128 µg/mL
MIC (A. baumannii [7]; both manually and through SVM): > 128 µg/mL
Broth Microdilution MIC (MIC) (A. baumannii [8]): >128

NC[C@H]1O[C@H](O[C@H]2[C@H](O)[C@@H](O[C@H]3O[C@H](CO)[C@@H](O)[C@H](N)[C@H]3O)[C@H](N)C[C@@H]2N)[C@H](O)[C@@H](O)[C@@H]1O [Kanamycin]
MIC (E coli mm 294): 8 µg/mL (≈ 16.5 µM)

Cc1onc(-c2ccccc2)c1C(=O)N[C@@H]1C(=O)N2[C@@H]1SC(C)(C)[C@@H]2C(=O)O [Oxacillin]
Broth Microdilution MIC (MIC) (MRSA [9]): 64
MA-MIC/SVM-MIC/MIC Category (S. agalactiae [10]): S/S/S*
QolorAST MIC Manual (MA-MIC) (S. agalactiae [10]): 0.125 µg/mL
QolorAST MIC SVM (SVM-MIC) (S. agalactiae [10]): 0.125 µg/mL
resistance or susceptibility (S. agalactiae [10]): susceptible
drug bounded to serum proteins (serum proteins): 93%
Broth Microdilution MIC (MIC) (S. agalactiae [11]): 0.125
QolorAST colour readout over incubation (MRSA [12]): consistent color change from blue to green
MA-MIC/SVM-MIC/MIC Category (MRSA [13]): R/R/R
QolorAST MIC Manual (MA-MIC) (MRSA [13]): 64 µg/mL
QolorAST MIC SVM (SVM-MIC) (MRSA [13]): 64 µg/mL
resistance or susceptibility (MRSA [13]): resistance

Gentamicin
QolorAST colour readout over incubation (Pseudomonas aeruginosa): consistent blue color
Broth Microdilution MIC (MIC) (PA [14]): 0.5
MA-MIC/SVM-MIC/MIC Category (PA [15]): S/S/S*
MIC outcomes (PA [15]): 0.5 µg/mL
QolorAST MIC Manual (MA-MIC) (PA [15]): 0.5 µg/mL
QolorAST MIC SVM (SVM-MIC) (PA [15]): 0.5 µg/mL
classification by clinical breakpoints (PA [15]): susceptible
